Patent US6770287B1, “Biocidal cellulosic material” (The Regents of the University of California, priority 2000, dated 2004)

Key:
E. coli [1] = experiment: AATCC Test Method 100 quantitative antibacterial test (bacterial reduction); assay type: cell-based, Escherichia coli (ATCC 2666); details: Anti-1 4%, contact time 60 min
Source text: AATCC Test Method 100 was adopted in this study. According to this test method, four pieces of staked circular fabric swatches 4.8±0.1 (about one grams) were inoculated with 1.0±0.1 milliliter of inoculum in a 250 milliliter jar. The inoculum was a nutrient broth culture containing over 1.0×10^6 clone forming units (CFU) of organisms. After the swatches were inoculated, they were neutralized by 100 milliliter of a 0.02% sodium thiosulfate solution in the jar. The contact time was the time between inoculation and neutralization. The jar was vigorously shaken and the neutralized solution was diluted in serial. The dilutions, usually 100, 101, and 102, were plated on nutrient agar and incubated for 18-24 hours at 37° C. The number of bacteria recovered from the inoculated finished fabrics was counted and compared with that from untreated fabrics. Six log reduction means the total inactivation of bacteria, and one log reduction means that finished fabrics reduced bacteria counts from 106 CFU to 105 CFU.
Finished fabrics prepared from solutions containing 1%-6% of monomethylol-5,5-dimethylhydantoin following the protocol set forth in Example 1 with pickup rates below 1% have been tested.
Fabrics finished in accordance with the protocol set forth in Example II with Anti-2, i.e., 1,3-dimethylol-5,5-dimethylhydantoin, were also tested with AATCC test method 100, which was briefly described in Example IV. In the tests, a diluted CLOROX® solution containing 0.01 % active chlorine was used to chlorinate the finished fabrics.

S. aureus = experiment: AATCC Test Method 147 qualitative antibacterial test (inhibition zone); assay type: cell-based, Staphylococcu aureus (ATCC 5368)
Source text: (§1) Fabric samples of #405 (pure cotton, Testfabrics, Inc., Middlesex, N.J.) and # 7402 (cotton/polyester 35/65, Testfabrics, Inc., Middlesex, N.J.) were finished in a manner similar to that set forth in Example I. The concentration of the finishing agent used was from about 5 to 15% in the finishing of the cotton fabrics and from about 5 to 20% in the finishing of the cotton/polyester (35/65) blend fabric because of the lower concentration of cellulose in the blend. The final biocidal property was imparted onto the finished fabrics by washing them with a diluted CLOROX® solution containing 0.25% chlorine after each washing circle. Qualitative antibacterial tests were conducted according to AATCC Test Method 147.
(§2) In the AATCC Test Method 147, two pieces of chlorinated fabrics with the size of 25 mm×50 mm were placed on a nutrient agar plate which had been inoculated by five streaks of a diluted bacteria solution using a 4 mm inoculating loop. The diluted bacteria solution was prepared by transferring 1.0 milliliter of 24 hour broth culture into 9.0 milliliter of sterile distilled water. The agar plate was incubated at 37° C. for 18-24 hours. The minimum width of inhibition zone along a streak on either side of the test specimen are measured. Table I sets forth the qualitative biocidal evaluations of the finished fabrics with different concentration of the agent Anti-1.

E. coli [2] = experiment: as above; assay type: cell-based, Escherichia coli (ATCC 2666)
Source text: as §1, §2

E. coli [3] = experiment: as above; assay type: cell-based, Escherichia coli (ATCC 2666); remark: listed apart in the source
[4] = #405 cotton, Anti-1 5%, add-on 1.2%
[5] = #405 cotton, Anti-1 10%, add-on 2.3%
[6] = #405 cotton, Anti-1 15%, add-on 3.1%
[7] = #7402 cotton/polyester 35/65, Anti-1 5%, add-on 0.8%
[8] = #7402 cotton/polyester 35/65, Anti-1 10%, add-on 1.4%
[9] = #7402 cotton/polyester 35/65, Anti-1 15%, add-on 1.6%
[10] = #7402 cotton/polyester 35/65, Anti-1 20%, add-on 2.0%
[11] = Cotton cloth #400, add-on 1.43%

In the case of `CC1(C)NC(=O)N(CO)C1=O` [Anti-1, monomethylol-5,5-dimethylhydantoin], the “Bacterial Reduction Rates After twenty washings E. coli” value (E. coli [1]; Cl 0.01%, #400) is reported as 6 log, the “Bacterial Reduction Rates After fifteen washings E. coli” value (E. coli [1]; Cl 0.01%, #7409) is reported as 6 log and the “Bacterial Reduction Rates After five Washings E. coli” value (E. coli [1]; Cl 0.01%, #7409) is reported as 6 log. The “Bacterial Reduction Rates After ten Washings E. coli” value (E. coli [1]; Cl 0.01%, #7409) was 6 log, the “Bacterial Reduction Rates After twenty washings E. coli” value (E. coli [1]; Cl 0.01%, #7409) was 6 log and the “Bacterial Reduction Rates After fifteen washings E. coli” value (E. coli [1]; Cl 0.1%, #400) was 6 log. For the same compound, the “Bacterial Reduction Rates After five Washings E. coli” value (E. coli [1]; Cl 0.1%, #400) was 6 log, the “Bacterial Reduction Rates After ten Washings E. coli” value (E. coli [1]; Cl 0.1%, #400) was 6 log and the “Bacterial Reduction Rates After twenty washings E. coli” value (E. coli [1]; Cl 0.1%, #400) was 1 log. The “Bacterial Reduction Rates After fifteen washings E. coli” value (E. coli [1]; Cl 0.1%, #7409) was 6 log, the “Bacterial Reduction Rates After five Washings E. coli” value (E. coli [1]; Cl 0.1%, #7409) was 6 log and the “Bacterial Reduction Rates After ten Washings E. coli” value (E. coli [1]; Cl 0.1%, #7409) was 6 log. For the same compound, the “Bacterial Reduction Rates After twenty washings E. coli” value (E. coli [1]; Cl 0.1%, #7409) was 6 log, the “Bacterial Reduction Rates After fifteen washings E. coli” value (E. coli [1]; Cl 0.25%, #400) was 1 log and the “Bacterial Reduction Rates After five Washings E. coli” value (E. coli [1]; Cl 0.25%, #400) was 6 log. The “Bacterial Reduction Rates After ten Washings E. coli” value (E. coli [1]; Cl 0.25%, #400) was 2 log, the “Bacterial Reduction Rates After twenty washings E. coli” value (E. coli [1]; Cl 0.25%, #400) was 1 log and the “Bacterial Reduction Rates After fifteen washings E. coli” value (E. coli [1]; Cl 0.25%, #7409) was 6 log. For the same compound, the “Bacterial Reduction Rates After five Washings E. coli” value (E. coli [1]; Cl 0.25%, #7409) was 6 log, the “Bacterial Reduction Rates After ten Washings E. coli” value (E. coli [1]; Cl 0.25%, #7409) was 6 log and the “Bacterial Reduction Rates After twenty washings E. coli” value (E. coli [1]; Cl 0.25%, #7409) was 1 log. The “Biocidal Results After 20 Times Washing S. aureus” value (S. aureus; [4]) was over 1 mm, the “Biocidal Results After 50 Times Washing S. aureus” value (S. aureus; [4]) was “˜1 mm” and the “Biocidal Results After 20 Times Washing S. aureus” value (S. aureus; [5]) was over 3 mm. The “Biocidal Results After 50 Times Washing S. aureus” value (S. aureus; [5]) was over 1 mm, the “Biocidal Results After 20 Times Washing S. aureus” value (S. aureus; [6]) was “kill all” and the “Biocidal Results After 50 Times Washing S. aureus” value (S. aureus; [6]) was over 4 mm. For the same compound, the “Biocidal Results After 20 Times Washing S. aureus” value (S. aureus; [7]) was over 1 mm, the “Biocidal Results After 50 Times Washing S. aureus” value (S. aureus; [7]) was “˜1 mm” and the “Biocidal Results After 20 Times Washing S. aureus” value (S. aureus; [8]) was over 1 mm. The “Biocidal Results After 50 Times Washing S. aureus” value (S. aureus; [8]) was “˜1 mm”, the “Biocidal Results After 20 Times Washing S. aureus” value (S. aureus; [9]) was “kill all” and the “Biocidal Results After 50 Times Washing S. aureus” value (S. aureus; [9]) was over 1 mm. The “Biocidal Results After 20 Times Washing S. aureus” value (S. aureus; [10]) was over 4 mm, the “Biocidal Results After 50 Times Washing S. aureus” value (S. aureus; [10]) was over 1 mm and the “Biocidal results against S. aureus after being activated” value (S. aureus; [11]) was over 1.0 mm. The “Biocidal Results After 20 Times Washing E. coli” value (E. coli [2]; [4]) was over 3 mm, the “Biocidal Results After 50 Times Washing E. coli” value (E. coli [2]; [4]) was over 1 mm and the “Biocidal Results After 20 Times Washing E. coli” value (E. coli [2]; [5]) was over 8 mm. For the same compound, the “Biocidal Results After 50 Times Washing E. coli” value (E. coli [2]; [5]) was over 3 mm, the “Biocidal Results After 20 Times Washing E. coli” value (E. coli [2]; [6]) was “kill all” and the “Biocidal Results After 50 Times Washing E. coli” value (E. coli [2]; [6]) was over 4 mm. The “Biocidal Results After 20 Times Washing E. coli” value (E. coli [2]; [7]) was over 3 mm, the “Biocidal Results After 50 Times Washing E. coli” value (E. coli [2]; [7]) was over 1 mm and the “Biocidal Results After 20 Times Washing E. coli” value (E. coli [2]; [8]) was over 3 mm. For the same compound, the “Biocidal Results After 50 Times Washing E. coli” value (E. coli [2]; [8]) was over 2 mm, the “Biocidal Results After 20 Times Washing E. coli” value (E. coli [2]; [9]) was “kill all” and the “Biocidal Results After 50 Times Washing E. coli” value (E. coli [2]; [9]) was over 2 mm. For the same compound, the “Biocidal Results After 20 Times Washing E. coli” value (E. coli [2]; [10]) was “kill all”, the “Biocidal Results After 50 Times Washing E. coli” value (E. coli [2]; [10]) was over 3 mm and the “Biocidal results against E. coli after being activated” value (“Biocidal results against E. coli” below) (E. coli [3]; [11]) was over 2.0 mm. For the same compound, the “Biocidal results against E. coli” value (E. coli [3]; Dacron/Cotton 65/35 #7402, add-on 1.19%) was over 10 mm, the “Biocidal results against E. coli” value (E. coli [3]; Rayon, add-on 1.21%) was over 1.0 mm and the “Biocidal results against E. coli” value (E. coli [3]; Terry cloth 100% Cotton, add-on 1.40%) was over 10 mm.
